In patent publication US20220073536A1 (Rigel Pharmaceuticals, Inc., priority 2003, published 2022):

How the values were obtained:
[1] = system: cultured human mast cells (CHMC); experiment: CHMC low cell density IgE activation: tryptase assay; assay type: cell-based; conditions: low cell density CHMC, IgE activation, tryptase release
Outline: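 Fluorogenic readout of tryptase released into the supernatant (30 min substrate incubation, room temperature) measures degranulation. Cells were plated at low density (1000–1500/well, varied by donor) and triggered with anti-IgE for 30 min at 37 °C.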

[2] = system: cultured human mast cells (CHMC); experiment: CHMC low cell density ionomycin activation: tryptase assay; assay type: cell-based; conditions: low cell density CHMC, tryptase release, 3 pt, read-out: LD Tryptase, CHMC, Iono, 3 pt
[3] = Homo sapiens, Mast cell, 3 pt, read-out: LD Tryptase, CHMC, IgE, 3 pt
[4] = Homo sapiens, Mast cell, 8 pt, read-out: LD Tryptase, CHMC, IgE, 8 pt
[5] = 3 pt, read-out: LD Tryptase, CHMC, IgE, 3 pt
[6] = 8 pt, read-out: LD Tryptase, CHMC, IgE, 8 pt

| IC50 [1, 3] [µM] | IC50 ([2]; Homo sapiens, Mast cell) [µM] | IC50 [1, 4] [µM] | IC50 [1, 5] [µM] | IC50 [1, 6] [µM] | IC50 [2] [µM] | Structure (SMILES) |
| --- | --- | --- | --- | --- | --- | --- |
| > 10 | > 10 | – | – | – | – | CN1C(=O)COc2cc(Nc3nc(Nc4ccc(-c5ncco5)cc4)ncc3F)ccc21 [Compound 244] |
| > 10 | > 10 | – | – | – | – | CN1C(=O)COc2ccc(Nc3nc(Nc4ccc(-c5ncco5)cc4)ncc3F)cc21 [Compound 245] |
| < 10 | > 10 | < 10 | – | – | – | O=C1COc2ccc(Nc3nc(Nc4cccc(-c5cnco5)c4)ncc3F)cc2N1 [Compound 246] |
| < 10 | > 10 | < 10 | – | – | – | C[C@@H]1Oc2ccc(Nc3nc(Nc4cccc(-c5cnco5)c4)ncc3F)cc2NC1=O [Compound 247] |
| < 10 | > 10 | < 10 | – | – | – | O=C1Nc2ccc(Nc3nc(Nc4cccc(-c5ncco5)c4)ncc3F)cc2OC1CCO (stereo not drawn) [Compound 248] |
| < 10 | > 10 | > 10 | – | – | – | O=C1Nc2ccc(Nc3nc(Nc4ccc(-c5cnco5)cc4)ncc3F)cc2OC1CCO (stereo not drawn) [Compound 249] |
| < 10 | < 10 | < 10 | – | – | – | C[C@H]1Oc2ccc(Nc3nc(Nc4cccc(-c5cocn5)c4)ncc3F)cc2NC1=O [Compound 250] |
| < 10 | > 10 | < 10 | – | – | – | C[C@@H]1Oc2ccc(Nc3nc(Nc4cccc(-c5cocn5)c4)ncc3F)cc2NC1=O [Compound 251] |
| – | – | – | < 10 | < 10 | > 10 | COc1cc(Nc2ncc(F)c(Nc3ccc4c(c3)NCC(CCO)O4)n2)cc(OC)c1 (stereo not drawn) [Compound 253, N4-[3,4-Dihydro-2-(2-hydroxyethyl)-2H,4H-benz[1,4]oxazin-6-yl]-N2-(3,5-dimethoxyphenyl)-5-fluoro-2,4-pyrimidinediamine] |
| – | – | – | < 10 | < 10 | > 10 | CNC(=O)COc1cccc(Nc2ncc(F)c(Nc3ccc4c(c3)NC(=O)CS4)n2)c1 [Compound 254, 5-Fluoro-N2-[3-(N-methylamino)carbonylmethyleneoxyphenyl]-N4-(3-oxo-2H,4H-benzo[1,4]thiazin-6-yl)-2,4-pyrimidinediamine] |
| – | – | – | < 10 | < 10 | > 10 | Cc1cc(C)cc(Nc2ncc(F)c(Nc3ccc4c(c3)NCC(CCO)O4)n2)c1 (stereo not drawn) [Compound 255, N4-[2,3-Dihydro-2-(2-hydroxyethyl)-2H,4H-benz[1,4]oxazin-6-yl]-N2-(3,5-dimethylphenyl)-5-fluoro-2,4-pyrimidinediamine] |
| < 10 | > 10 | < 10 | – | – | – | COc1cc(Nc2ncc(F)c(Nc3ccc4c(c3)NC(=O)CS4)n2)cc(OC)c1 [Compound 256] |
| < 10 | > 10 | < 10 | – | – | – | COc1ccc(Nc2ncc(F)c(Nc3ccc4c(c3)NC(=O)CS4)n2)cc1Cl [Compound 257] |
| – | – | – | < 10 | < 10 | > 10 | CNC(=O)COc1cccc(Nc2ncc(F)c(Nc3ccc4c(c3)NCCS4)n2)c1 [Compound 258, N4-(3,4-Dihydro-2H,4H-benzo[1,4]thiazin-6-yl)-5-fluoro-N2-[3-(N-methylamino)carbonylmethyleneoxyphenyl]-2,4-pyrimidinediamine] |
| – | – | – | < 10 | < 10 | > 10 | CNC(=O)COc1cccc(Nc2ncc(F)c(Nc3ccc4c(c3)N(C)C(=O)CS4)n2)c1 [Compound 259, 5-Fluoro-N2-[3-(N-methylamino)carbonylmethyleneoxyphenyl]-N4-(4-methyl-3-oxo-2H-benzo[1,4]thiazin-6-yl)-2,4-pyrimidinediamine] |
| < 10 | > 10 | < 10 | – | – | – | COc1cc(Nc2ncc(F)c(Nc3ccc4c(c3)N(C)C(=O)CS4)n2)cc(OC)c1 [Compound 260] |
| – | – | – | < 10 | – | > 10 | NC(=S)c1cccc(Nc2ncc(F)c(Nc3ccc4c(c3)NC(=O)CO4)n2)c1 [Compound 261, N2-(3-Benzothioamide)-5-fluoro-N4-(3-oxo-2H,4H-benz[1,4]oxazin-6-yl)-2,4-pyrimidinediamine] |
